Source: patent publication US20130203756A1, “ISOINDOLINE PDE10 INHIBITORS” (priority 2010, published 2013)

Molecular target: T1, human PDE10A2 (Homo sapiens, UniProt Q9Y233)
T1 construct: made in house; host or cells: AD293 cells, transient transfection; cytosolic supernatant of the sonicated lysate used as enzyme
Assay: PDE10 inhibitory activity, IMAP fluorescence polarization (FP) assay
Assay type: biochemical
Settings: apparent inhibition constant, FAM-labeled cAMP 50 nM, room temperature, read-out: PDE10A Ki
Protocol: The activity of the compounds in accordance with the present invention as PDE10 inhibitors may be readily determined without undue experimentation using a fluorescence polarization (FP) methodology that is well known in the art (Huang, W., et al., J. Biomol Screen, 2002, 7: 215).
In a typical experiment the PDE 10 inhibitory activity of the compounds of the present invention was determined in accordance with the following experimental method. PDE10A2 was amplified from human fetal brain cDNA (Clontech, Mountain View, Calif.) using a forward primer corresponding to nucleotides 56-77 of human PDE10A2 (Accession No. AF127480, Genbank Identifier 4894716), containing a Kozak consensus sequence, and a reverse primer corresponding to nucleotides 2406-2413 of human PDE10A2 (Accession No. AF127480, Genbank Identifier 4894716). Amplification with Easy-A polymerase (Stratagene, La Jolla, Calif.) was 95° C. for 2 minutes followed by thirty three cycles of 95° C. for 40 seconds, 55° C. for 30 seconds, and 72° C. for 2 minutes 48 seconds. Final extension was 72° C. for 7 minutes. The PCR product was TA cloned into pcDNA3.2-TOPO (Invitrogen, Carlsbad, Calif.) according to standard protocol. AD293 cells with 70-80% confluency were transiently transfected with human PDE10A2/pcDNA3.2-TOPO using Lipofectamine 2000 according to manufacturer specifications (Invitrogen, Carlsbad, Calif.). Cells were harvested 48 hours post-transfection and lysed by sonication (setting 3, 10×5 sec pulses) in a buffer containing 20 mM HEPES, 1 mM EDTA and protease inhibitor cocktail (Roche). Lysate was collected by centrifugation at 75,000×g for 20 minutes. Supernatant containing the cytoplasmic fraction was used for evaluation of PDE10A2 activity. The fluorescence polarization assay for cyclic nucleotide phosphodiesterases was performed using an IMAP® FP kit supplied by Molecular Devices, Sunnyvale, Calif. (product #R8139). IMAP® technology has been applied previously to phosphodiesterase assays (Huang, W., et al., J. Biomol Screen, 2002, 7: 215). Assays were performed at room temperature in 384-well microtiter plates with an incubation volume of 20.2 μL. Solutions of test compounds were prepared in DMSO and serially diluted with DMSO to yield 8 μL of each of 10 solutions differing by 3-fold in concentration, at 32 serial dilutions per plate. 100% inhibition is determined using a known PDE10 inhibitor, which can be any compound that is present at 5,000 times its Ki value in the assay described as follows, such as papaverine (see Siuciak, et al. Neuropharmacology (2006) 51:386-396; Becker, et al. Behav Brain Res (2008) 186(2):155-60; Threlfell, et al., J Pharmacol Exp Ther (2009) 328(3):785-795), 2-{4-[pyridin-4-yl-1-(2,2,2-trifluoroethyl)-1H-pyrazol-3-yl]phenoxymethyl}quinoline succinic acid or 2-[4-(1-methyl-4-pyridin-4-yl-1H-pyrazol-3-yl)-phenoxymethyl]quinoline succinic acid (see Schmidt, et al. J Pharmacol Exp Ther (2008) 325:681-690; Threlfell, et al., J Pharmacol Exp Ther (2009) 328(3): 785-795), 0% of inhibition is determined by using DMSO (1% final concentrations).
A Labcyte Echo 555 (Labcyte, Sunnyvale, Calif.) is used to dispense […] from each well of the titration plate to the 384 well assay plate. A solution of enzyme (1/1600 dilution from aliquots; sufficient to produce 20% substrate conversion) and a separate solution of FAM-labeled cAMP PDE from Molecular Devices (product #R7506), at a final concentration of 50 nM are made in the assay buffer (10 mM Tris HCl, pH 7.2, 10 mM MgCl2, 0.05% NaN3 0.01% Tween-20, and 1 mM DTT). The enzyme and the substrate are then added to the assay plates in two consecutive additions of 10 μL, and then shaken to mix. The reaction is allowed to proceed at room temperature for 30 minutes. A binding solution is then made from the kit components, comprised of 80% Solution A, 20% Solution B and binding reagent at a volume of 1/600 the total binding solution. […]

T1 sequence (Q9Y233 267-1055): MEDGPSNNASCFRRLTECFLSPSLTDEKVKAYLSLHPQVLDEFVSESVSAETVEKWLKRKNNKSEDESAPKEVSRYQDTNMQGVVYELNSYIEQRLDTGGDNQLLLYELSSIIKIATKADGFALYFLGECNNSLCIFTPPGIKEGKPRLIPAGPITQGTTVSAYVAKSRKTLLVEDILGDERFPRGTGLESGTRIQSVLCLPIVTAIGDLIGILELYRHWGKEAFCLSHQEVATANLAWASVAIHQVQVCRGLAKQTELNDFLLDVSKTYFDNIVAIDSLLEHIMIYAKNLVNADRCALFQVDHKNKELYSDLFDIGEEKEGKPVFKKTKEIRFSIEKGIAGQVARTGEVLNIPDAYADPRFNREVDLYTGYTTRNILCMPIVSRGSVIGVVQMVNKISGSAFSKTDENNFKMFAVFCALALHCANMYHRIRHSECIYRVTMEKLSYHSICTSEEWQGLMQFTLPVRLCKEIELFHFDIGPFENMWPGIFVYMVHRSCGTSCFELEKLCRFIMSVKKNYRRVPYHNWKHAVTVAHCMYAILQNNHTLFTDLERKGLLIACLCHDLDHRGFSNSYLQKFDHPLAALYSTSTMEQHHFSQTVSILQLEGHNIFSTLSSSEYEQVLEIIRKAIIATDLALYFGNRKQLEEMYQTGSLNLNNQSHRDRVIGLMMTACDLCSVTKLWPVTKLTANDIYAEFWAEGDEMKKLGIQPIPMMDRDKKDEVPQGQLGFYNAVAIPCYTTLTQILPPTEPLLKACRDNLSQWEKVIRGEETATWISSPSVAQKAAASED

Ki [nM] | SMILES
0.61 | Cc1ccc([C@@H]2C[C@H]2CN2Cc3c(cccc3-c3ncco3)C2=O)nc1 (single isomer, unassigned) [Compound 1-50, 2-{[(1S,2S) or (1R,2R)-2-(5-methylpyridin-2-yl)cyclopropyl]methyl}-4-(1,3-oxazol-2-yl)-2,3-dihydro-1H-isoindol-1-one]
0.86 | Cc1ccc([C@@H]2C[C@H]2CN2Cc3c(cccc3-n3cccn3)C2=O)nc1 (single isomer, unassigned) [Compound 1-54, 2-{[(1S,2S) or (1R,2R)-2-(5-methylpyridin-2-yl)cyclopropyl]methyl}-4-(1H-pyrazol-1-yl)-2,3-dihydro-1H-isoindol-1-one]
2.9 | COc1ccc(-n2c(CCN3Cc4cccc(OC(C)C)c4C3=O)nc3ccccc3c2=O)cc1 (single isomer, unassigned) [Compound B-6, 3-(4-methoxyphenyl)-2-{2-[1-oxo-7-(propan-2-yloxy)-1,3-dihydro-2H-isoindol-2-yl]ethyl}quinazolin-4(3H)-one]
1.2 | COc1ccc(-n2c(CCN3Cc4c(OC(C)C)cccc4C3=O)nc3ccccc3c2=O)cc1 (single isomer, unassigned) [Compound B-7, 3-(4-methoxyphenyl)-2-{2-[1-oxo-4-(propan-2-yloxy)-1,3-dihydro-2H-isoindol-2-yl]ethyl}quinazolin-4(3H)-one]
0.46 | O=C1c2cccc(-n3cccn3)c2CN1CCc1ccc2ccccc2n1 [Compound 1-17, 4-(1H-pyrazol-1-yl)-2-[2-(quinolin-2-yl)ethyl]-2,3-dihydro-1H-isoindol-1-one]
0.1 | O=C1c2cccc(-c3cscn3)c2CN1CCc1nc2ccccc2cc1C1CC1 [Compound 1-27, 2-[2-(3-cyclopropylquinolin-2-yl)ethyl]-4-(1,3-thiazol-4-yl)-2,3-dihydro-1H-isoindol-1-one]
1.2 | O=C1c2cccc(-c3cscn3)c2CN1CCc1ccc2c(n1)CCCC2O (centres unmarked) [Compound 1-28, 2-[2-(5-hydroxy-5,6,7,8-tetrahydroquinolin-2-yl)ethyl]-4-(1,3-thiazol-4-yl)-2,3-dihydro-1H-isoindol-1-one]
4.6 | O=C1c2cccc(-c3ncco3)c2CN1CCc1ccc2c(n1)CCCC2O (centres unmarked) [Compound 1-29, 2-[2-(5-hydroxy-5,6,7,8-tetrahydroquinolin-2-yl)ethyl]-4-(1,3-oxazol-2-yl)-2,3-dihydro-1H-isoindol-1-one]
5.8 | O=C1c2cccc(-c3nccs3)c2CN1CCc1csc(-c2ccn[nH]2)n1 [Compound 1-40, 2-(2-(2-(1H-pyrazol-5-yl)thiazol-4-yl)ethyl)-4-(thiazol-2-yl)isoindolin-1-one]
16 | COc1ccc(-n2c(CCN3Cc4c(Br)cccc4C3=O)nc3ccccc3c2=O)cc1 [Compound A-3, 2-[2-(4-bromo-1-oxo-1,3-dihydro-2H-isoindol-2-yl)ethyl]-3-(4-methoxyphenyl)quinazolin-4(3H)-one]
0.19 | COc1ccc(-n2c(CCN3Cc4c(cccc4-c4ncco4)C3=O)nc3ccccc3c2=O)cc1 [Compound A-4, 3-(4-methoxyphenyl)-2-{2-[4-(1,3-oxazol-2-yl)-1-oxo-1,3-dihydro-2H-isoindol-2-yl]ethyl}quinazolin-4(3H)-one]
0.011 | COc1ccc(-c2cc3ccccc3nc2CCN2Cc3c(cccc3-c3ncco3)C2=O)cc1 [Compound C-5, 2-{2-[3-(4-methoxyphenyl)quinolin-2-yl]ethyl}-4-(1,3-oxazol-2-yl)-2,3-dihydro-1H-isoindol-1-one]
10.9 | O=C1c2cccc(-n3cccn3)c2CN1CCc1ccc2ncccc2n1 [Compound D-4, 2-[2-(1,5-naphthyridin-2-yl)ethyl]-4-(1H-pyrazol-1-yl)-2,3-dihydro-1H-isoindol-1-one]
5.7 | CC(CN1Cc2c(cccc2-c2ncco2)C1=O)c1cn2ccccc2n1 (centres unmarked) [Compound E-5, 2-[2-(imidazo[1,2-a]pyridin-2-yl)propyl]-4-(1,3-oxazol-2-yl)-2,3-dihydro-1H-isoindol-1-one]
2.3 | O=C1c2cccc(-c3ncco3)c2CN1CCc1ccc2c(n1)CCCC2 [Compound F-6, 4-(1,3-oxazol-2-yl)-2-[2-(5,6,7,8-tetrahydroquinolin-2-yl)ethyl]-2,3-dihydro-1H-isoindol-1-one]
50 | Cn1cc(-c2cccc3c2CN(CCc2ccc4ncccc4n2)C3=O)nn1 [Compound H-2, 4-(1-methyl-1H 1,2,3-triazol-4-yl)-2-[2-(1,5-naphthyridin-2-yl)ethyl]isoindolin-1-one]
17.2 | O=C1c2cc(O)cc(Br)c2CN1CCc1ccc2ncccc2n1 [Compound I-4, 4-Bromo-6-hydroxy-2-[2-(1,5naphthyridin-2-yl)ethyl]isoindolin-1-one]
11.2 | Cn1cc(CNc2cc3c(c(-c4ncco4)n2)CN(CCc2cn4ccccc4n2)C3=O)cn1 [Compound J-9]
0.31 | O=C1c2cccc(-c3cscn3)c2CN1CCc1csc(-c2ccn[nH]2)n1 [Compound K-4, 2-(2-(2-(1H-pyrazol-5-yl)thiazol-4-yl)ethyl)-4-(thiazol-4-yl)isoindolin-1-one]
0.14 | O=C1c2cccc(-c3ncco3)c2CN1CC1CC1c1cn2ccccc2n1 (centres unmarked) [Compound M-6, 2-((2-(imidazo[1,2-a]pyridin-2-yl)cyclopropyl)methyl)-4-(oxazol-2-yl)isoindolin-1-one]
